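Interpolation was linear, between the two tested concentrations surrounding the appropriate level; five concentrations were tested over 48 hours in 96-well plates. The concentration for 50% growth inhibition is given as GI50. TGI marks complete inhibition of growth.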
Experiments:
Test in all cases: growth of human tumour cells (NCI), 48 h
NCI-H23 lung = tested on: NCI-H23 lung
SK-OV-3 ovarian = tested on: SK-OV-3 ovarian
HL-60(TB) leukemia = tested on: HL-60(TB) leukemia
OVCAR-4 ovarian = tested on: OVCAR-4 ovarian
TK-10 renal = tested on: TK-10 renal
UACC-257 melanoma = tested on: UACC-257 melanoma
NCI-H460 lung = tested on: NCI-H460 lung
UACC-62 melanoma = tested on: UACC-62 melanoma
UO-31 renal = tested on: UO-31 renal
M14 melanoma = tested on: M14 melanoma

SMILES | GI50 (NCI-H23 lung) | TGI (NCI-H23 lung) | GI50 (SK-OV-3 ovarian) | TGI (SK-OV-3 ovarian) | GI50 (HL-60(TB) leukemia) | TGI (HL-60(TB) leukemia) | GI50 (OVCAR-4 ovarian) | TGI (OVCAR-4 ovarian) | GI50 (TK-10 renal) | TGI (TK-10 renal) | GI50 (UACC-257 melanoma) | TGI (UACC-257 melanoma) | GI50 (NCI-H460 lung) | TGI (NCI-H460 lung) | GI50 (UACC-62 melanoma) | TGI (UACC-62 melanoma) | GI50 (UO-31 renal) | TGI (UO-31 renal) | GI50 (M14 melanoma) | TGI (M14 melanoma)
c1ccc2[nH]c(-c3cc(-c4ccc5c(c4)OCO5)n[nH]3)nc2c1 | 4.47 µM | 19.3 µM | 4.98 µM | 17.7 µM | 2.27 µM | 20.2 µM | 2.16 µM | 12 µM | 10.9 µM | 23.8 µM | 6 µM | 23.2 µM | 4.57 µM | 17.7 µM | 3.08 µM | 14.7 µM | 3.98 µM | 16.1 µM | 2.19 µM | 16.7 µM
O=S(=O)(/C=C/CS(=O)(=O)c1ccccc1)c1ccccc1 | – | 50 µM | – | 87 µM | – | 37.9 µM | – | > 100 µM | – | > 100 µM | – | 87 µM | – | 63.9 µM | – | 52.2 µM | – | > 100 µM | – | 67.3 µM
COC(=O)C(CC1=C(O)Nc2ccccc2N1)/C(=N/NC(N)=O)C(=O)Nc1ccccc1C (stereo not given) | – | > 100 µM | – | > 100 µM | – | > 100 µM | – | > 100 µM | – | > 100 µM | – | > 100 µM | – | > 100 µM | – | > 100 µM | – | > 100 µM | – | > 100 µM
Nc1c(C(=O)c2cccc(-c3cccnc3)c2)cnn1-c1ccc(F)cc1F | 4.41 µM | > 25 µM | 7.21 µM | > 25 µM | 5.76 µM | > 25 µM | 7.77 µM | > 25 µM | 6.43 µM | > 25 µM | 6.28 µM | > 25 µM | 1.52 µM | > 25 µM | 2.65 µM | > 25 µM | 5.56 µM | > 25 µM | 2.71 µM | > 25 µM
N#CSCc1ccc(Cl)c(CSC#N)c1 | 0.913 µM | 44.5 µM | 20 µM | > 100 µM | 0.0468 µM | 2.48 µM | 0.659 µM | 19.4 µM | 14.5 µM | 46.6 µM | 15 µM | 50.2 µM | 0.807 µM | 12.6 µM | 2.53 µM | 23.7 µM | 0.154 µM | 12.8 µM | 0.0759 µM | 14.8 µM
C=C1CC[C@@H]2[C@](C)(COC(C)=O)[C@H](OC(C)=O)CC[C@@]2(C)[C@@H]1CC(Nc1ccc(S(=O)(=O)Nc2ccc(Cl)nn2)cc1)C1=CCOC1=O (stereo not given in full) | 2.06 µM | 5.35 µM | 4.05 µM | 12.3 µM | 1.32 µM | 4.44 µM | 1.47 µM | 3.17 µM | 2.13 µM | 4.19 µM | 1.67 µM | 3.89 µM | 2.03 µM | 4.31 µM | 1.49 µM | 3.86 µM | 1.45 µM | 2.88 µM | 1.45 µM | 3.41 µM
COc1ccc(CC2(Cc3ccc(OC)cc3)CCOC2=O)cc1 | – | > 100 µM | – | > 100 µM | – | > 100 µM | – | > 100 µM | – | > 100 µM | – | > 100 µM | – | > 100 µM | – | > 100 µM | – | > 100 µM | – | > 100 µM
COc1cccc(NC(=O)CC(=O)N2N=C(n3ccc4ccccc43)CC2c2ccccc2)c1 (stereo not given) | – | > 100 µM | – | > 100 µM | – | > 100 µM | – | > 100 µM | – | > 100 µM | – | > 100 µM | – | > 100 µM | – | > 100 µM | – | > 100 µM | – | > 100 µM
